Experimental data taken from patent US10851064B2, “ACSS2 inhibitors and methods of use thereof” (METABOMED LTD., priority 2017, dated 2020).
pIC50: −log10 of the molar value.

target: ACSS2 (Homo sapiens, UniProt Q9NR19); assay: biochemical
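Also: Cell-free human ACSS2 enzyme reaction with acetate, CoA and ATP, 90 min at 37 C, coupled to pyrophosphatase, phosphate release detected by Biomol Green absorbance at 620 nm.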

Sequence of ACSS2 (Q9NR19 whole entry): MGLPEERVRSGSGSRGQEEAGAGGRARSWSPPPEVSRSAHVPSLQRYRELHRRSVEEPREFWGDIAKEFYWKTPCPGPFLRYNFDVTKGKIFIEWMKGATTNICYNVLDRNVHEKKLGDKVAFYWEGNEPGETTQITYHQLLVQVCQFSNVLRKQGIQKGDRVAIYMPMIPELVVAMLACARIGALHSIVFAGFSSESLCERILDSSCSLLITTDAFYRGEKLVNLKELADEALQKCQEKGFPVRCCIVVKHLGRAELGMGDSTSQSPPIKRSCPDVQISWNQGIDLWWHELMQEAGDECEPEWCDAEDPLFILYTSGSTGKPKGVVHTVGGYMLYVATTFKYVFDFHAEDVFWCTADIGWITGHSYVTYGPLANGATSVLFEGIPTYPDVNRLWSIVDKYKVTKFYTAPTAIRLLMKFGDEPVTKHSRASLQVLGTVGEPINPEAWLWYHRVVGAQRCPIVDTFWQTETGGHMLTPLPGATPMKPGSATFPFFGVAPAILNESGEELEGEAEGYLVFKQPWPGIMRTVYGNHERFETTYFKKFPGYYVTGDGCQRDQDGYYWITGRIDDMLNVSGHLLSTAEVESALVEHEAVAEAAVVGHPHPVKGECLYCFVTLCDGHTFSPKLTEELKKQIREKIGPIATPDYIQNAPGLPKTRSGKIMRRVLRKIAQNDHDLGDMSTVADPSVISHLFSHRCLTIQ

Structure (SMILES) | pIC50
CC1=NN(c2ccccc2)C(=O)C1C(=O)Nc1ccccc1 (stereo not drawn) [compound 182, 3-methyl-5-oxo-N,1-diphenyl-4,5-dihydro-1H-pyrazole-4-carboxamide] | 4.00 to 6.00
CC1=NN(c2ccc(OC(F)F)c(-c3nnc(C)o3)c2)C(=O)C1C(=O)Nc1cccc(C(C)(F)F)c1 (stereo not drawn) [compound 429] | 8.22 to 11.00
CC1=NN(c2cc(-c3ccccc3)cc(-c3ccccc3)c2)C(=O)C1C(=O)Nc1cccc(C(C)(F)F)c1 (stereo not drawn) [compound 401] | 7.00 to 8.22
CC1=NN(c2ccccc2)C(=O)C1C(=O)Nc1nccn1C (stereo not drawn) [compound 268] | 4.00 to 6.00
CC1=NN(c2ccccc2)C(=O)C1C(=O)N[C@@H](C)C(=O)O (stereo partly drawn) [compound 218, (2S)-2-(3-methyl-5-oxo-1-phenyl-4,5-dihydro-1H-pyrazole-4-carboxamido)propanoic acid] | 4.00 to 6.00
CC1=NN(c2ccc(OC(F)F)c(-c3noc(C)n3)c2)C(=O)C1C(=O)Nc1cccc(C(C)(F)F)c1 (stereo not drawn) [compound 407] | 8.22 to 11.00
CCOc1ccc(N2N=C(C)C(C(=O)Nc3cccc(CC)c3)C2=O)cc1 (stereo not drawn) [compound 134, 1-(4-ethoxyphenyl)-N-(3-ethylphenyl)-3-methyl-5-oxo-4,5-dihydro-1H-pyrazole-4-carboxamide] | 4.00 to 6.00
CC1=NN(c2ccccc2)C(=O)C1C(=O)Nc1cccc(Cl)c1 (stereo not drawn) [compound 210, N-(3-chlorophenyl)-3-methyl-5-oxo-1-phenyl-4,5-dihydro-1H-pyrazole-4-carboxamide] | 7.00 to 8.22
CCCOc1ccc(N2N=C(C)C(C(=O)Nc3cccc(CC)c3)C2=O)cc1 (stereo not drawn) [compound 158, N-(3-ethylphenyl)-3-methyl-5-oxo-1-(4-propoxyphenyl)-4,5-dihydro-1H-pyrazole-4-carboxamide] | 7.00 to 8.22
CCc1cc(NC(=O)C2C(=O)N(c3ccccc3)N=C2C)cs1 (stereo not drawn) [compound 284] | 6.00 to 7.00
COc1ccc(NC(=O)C2C(=O)N(c3ccccc3)N=C2C)cc1 (stereo not drawn) [compound 188, N-(4-methoxyphenyl)-3-methyl-5-oxo-1-phenyl-4,5-dihydro-1H-pyrazole-4-carboxamide] | 4.00 to 6.00
CC1=NN(c2ccc(OC(F)F)c(-c3cnccn3)c2)C(=O)C1C(=O)Nc1cccc(C(C)(F)F)c1 (stereo not drawn) [compound 437] | 8.22 to 11.00
CC1=NN(c2ccc3ccccc3c2)C(=O)C1C(=O)Nc1ccccc1 (stereo not drawn) [compound 198, 5-hydroxy-3-methyl-1-(naphthalen-2-yl)-N-phenyl-1H-pyrazole-4-carboxamide] | 4.00 to 6.00
CC1=NN(c2cc(-c3ccccc3)cc(-c3cccnc3)c2)C(=O)C1C(=O)Nc1cccc(C(C)(F)F)c1 (stereo not drawn) [compound 390] | 8.22 to 11.00
CC1=NN(c2cc(Cc3ccccc3Cl)cc(-c3ccccc3)c2)C(=O)C1C(=O)Nc1cccc(C(C)(F)F)c1 (stereo not drawn) [compound 333] | 7.00 to 8.22
COc1ccc(N2N=C(C)C(C(=O)Nc3cccc(C(C)(F)F)c3)C2=O)cc1-c1cncnc1 (stereo not drawn) [compound 442] | 8.22 to 11.00
CCc1cccc(NC(=O)C2C(=O)N(c3ccccc3)N=C2c2ccccc2)c1 (stereo not drawn) [compound 126, N-(3-ethylphenyl)-5-oxo-1,3-diphenyl-4,5-dihydro-1H-pyrazole-4-carboxamide] | 4.00 to 6.00
CC1=NN(c2cccc(CN)c2)C(=O)C1C(=O)Nc1cccc(C(C)(F)F)c1 (stereo not drawn) [compound 335] | 7.00 to 8.22
CC1=NN(c2ccccc2)C(=O)C1C(=O)Nc1cccc(O)c1 (stereo not drawn) [compound 222, N-(3-hydroxyphenyl)-3-methyl-5-oxo-1-phenyl-4,5-dihydro-1H-pyrazole-4-carboxamide] | 4.00 to 6.00
CC1=NN(c2cc(Br)cc(Cc3ccccc3Cl)c2)C(=O)C1C(=O)Nc1cccc(C(C)(F)F)c1 (stereo not drawn) [compound 412] | 8.22 to 11.00
CCc1cccc(NC(=O)C2C(=O)N(c3ccc(NC(=O)N(C)C)cc3)N=C2C)c1 (stereo not drawn) [compound 155, 1-(4-(3,3-dimethylureido)phenyl)-N-(3-ethylphenyl)-3-methyl-5-oxo-4,5-dihydro-1H-pyrazole-4-carboxamide] | 6.00 to 7.00
